Assay results reported in paper PMC9816194, “Use of the head-twitch response to investigate the structure–activity relationships of 4-thio-substituted 2,5-dimethoxyphenylalkylamines” (Psychopharmacology, 2022).
Read-outs that look alike come from different tables or passages of the source.

Tests used:
humans = conditions: cited from earlier work; for Human potency range: dose range active as psychedelic in humans
human 5-HT2A receptor [1] = molecular target: T1, human 5-HT2A receptor (Homo sapiens, UniProt P28223); parameters: expressed in transfected cells; host or cells: HEK 293 (transient), membrane preparations; conditions: read-out: 5-HT2A Ki; [3H]ketanserin; ref Luethi et al. (2018); cited from earlier work
T1 sequence (P28223 whole entry): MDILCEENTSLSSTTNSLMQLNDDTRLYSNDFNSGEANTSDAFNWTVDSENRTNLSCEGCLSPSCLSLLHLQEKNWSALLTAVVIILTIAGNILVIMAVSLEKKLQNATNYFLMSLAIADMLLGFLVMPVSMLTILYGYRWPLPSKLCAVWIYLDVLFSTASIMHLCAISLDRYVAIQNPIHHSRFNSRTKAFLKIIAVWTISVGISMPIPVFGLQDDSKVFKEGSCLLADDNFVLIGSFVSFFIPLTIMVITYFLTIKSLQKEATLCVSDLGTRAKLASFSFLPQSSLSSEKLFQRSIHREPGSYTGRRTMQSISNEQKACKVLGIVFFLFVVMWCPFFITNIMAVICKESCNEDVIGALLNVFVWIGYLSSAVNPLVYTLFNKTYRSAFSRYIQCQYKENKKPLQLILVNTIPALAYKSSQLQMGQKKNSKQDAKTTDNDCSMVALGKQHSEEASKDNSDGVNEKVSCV

male C57BL/6 J mice = assay: Head-twitch response (HTR), magnetometer coil recording; format: in vivo; conditions: for HTR Counts (Mean ± SEM): 30 min; for ED50: Mus musculus, 0.5 h, HTR, IP, 30 min recording, male C57BL/6 J mice; for reduction of HTR potency versus 2C-T-7: replacement of the 4-n-propylthio group of 2C-T-7; for maximum number of head twitches (mean ± SEM): during the 30-min assessment period
Protocol: Male C57BL/6 J mice (Jackson Laboratory, Bar Harbor, ME) were housed in a vivarium at the University of California San Diego (UCSD), which is an AAALAC-approved animal facility that complies with Federal and State requirements for care and treatment of laboratory animals. The mice (6–8 weeks old) were housed in a climate-controlled room with a reversed light-cycle (lights on at 19:00 h, off at 07:00 h) up to 4 animals per cage. Food and water were provided ad libitum, except during behavioral testing which occurred between 10:00 and 18:00 h. All experiments were conducted according to NIH guidelines and were approved by the UCSD animal care committee.
Head movement was recorded using a head-mounted magnet and a magnetometer coil (Halberstadt and Geyer [2013]). Briefly, mice were anesthetized, a small incision was made in the scalp, and a neodymium magnet was attached to the dorsal surface of the cranium using dental cement. Following a 1–2-week recovery period, behavioral experiments were conducted in a well-lit room with at least 7 days between sessions to avoid any carryover effects. Mice were treated with vehicle or test compound and then placed in a glass cylinder surrounded by a magnetometer coil and activity was recorded for 30 min. All test substances were administered IP dissolved in saline using an injection volume of 5 mL/kg. Coil voltage was filtered (5–10 kHz lowpass), digitized (20 kHz sampling rate), and saved to disk using a Powerlab/8SP with LabChart v 7.3.2 (ADInstruments, Colorado Springs, CO). To detect head twitches, events in the recordings were converted into scalograms using a wavelet transform and then the images were classified using a multistage approach combining the deep convolutional neural network (CNN) ResNet-50 with a support vector machine (SVM) algorithm (Halberstadt [2020]). HTR counts were analyzed using a one-way Welch analysis of variance (ANOVA). Post hoc pairwise comparisons were performed using Dunnett’s test. […] Median effective doses (ED50 values) and 95% confidence intervals were calculated using nonlinear regression (Prism ver. 9.0.2, GraphPad Software Inc, San Diego, CA, USA).

h5-HT2C receptors = molecular target: T2, h5-HT2C receptors (Homo sapiens, UniProt P28335); assay: 5-HT2C receptor binding, [3H]mesulergine displacement
T2 construct: expressed in transfected cells; host or cells: HEK 293 (transient), membrane preparations
T2 sequence (P28335 33-458): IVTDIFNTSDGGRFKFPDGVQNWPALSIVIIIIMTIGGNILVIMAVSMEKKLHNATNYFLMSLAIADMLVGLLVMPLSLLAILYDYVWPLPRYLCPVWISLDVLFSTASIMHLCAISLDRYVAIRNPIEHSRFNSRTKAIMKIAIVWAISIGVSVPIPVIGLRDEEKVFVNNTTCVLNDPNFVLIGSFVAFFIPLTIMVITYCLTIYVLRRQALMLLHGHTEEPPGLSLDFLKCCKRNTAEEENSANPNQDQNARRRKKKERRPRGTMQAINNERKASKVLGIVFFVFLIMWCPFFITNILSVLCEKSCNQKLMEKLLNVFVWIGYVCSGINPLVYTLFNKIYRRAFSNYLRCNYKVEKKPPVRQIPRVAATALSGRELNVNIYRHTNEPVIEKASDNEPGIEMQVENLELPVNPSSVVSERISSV
Protocol: (§1) 5-HT receptor binding affinities were assessed as previously described in detail (Luethi et al. [2018]). In brief, membrane preparations of transiently transfected HEK 293 cells were incubated with selective radioligands at concentrations equal to the corresponding Kd and then ligand displacement by the test drugs was measured. The difference between the total binding and the nonspecific binding determined in the presence of selective competitors was defined as specific binding. The following radioligands and competitors, respectively, were used: 0.40 nM [^3H]ketanserin and 10 μM spiperone (serotonin 5-HT2A receptor), 1.4 nM [^3H]mesulergine and 10 μM mianserin (serotonin 5-HT2C receptor). The IC50 values of the radioligand binding assays were determined using nonlinear regression curves for every drug in a one-site model. Ki values corresponding to the dissociation constants were calculated with the Cheng-Prusoff equation.

human 5-HT2B receptor = molecular target: T3, human 5-HT2B receptor (Homo sapiens, UniProt P41595); assay: Agonist activity at the 5-HT2B receptor, FLIPR calcium flux in HEK 293 cells; format: cell-based; conditions: for Emax: HEK293, calcium flux, read-out: h5-HT2B Emax
T3 construct: expressed in transfected cells
T3 sequence (P41595 whole entry): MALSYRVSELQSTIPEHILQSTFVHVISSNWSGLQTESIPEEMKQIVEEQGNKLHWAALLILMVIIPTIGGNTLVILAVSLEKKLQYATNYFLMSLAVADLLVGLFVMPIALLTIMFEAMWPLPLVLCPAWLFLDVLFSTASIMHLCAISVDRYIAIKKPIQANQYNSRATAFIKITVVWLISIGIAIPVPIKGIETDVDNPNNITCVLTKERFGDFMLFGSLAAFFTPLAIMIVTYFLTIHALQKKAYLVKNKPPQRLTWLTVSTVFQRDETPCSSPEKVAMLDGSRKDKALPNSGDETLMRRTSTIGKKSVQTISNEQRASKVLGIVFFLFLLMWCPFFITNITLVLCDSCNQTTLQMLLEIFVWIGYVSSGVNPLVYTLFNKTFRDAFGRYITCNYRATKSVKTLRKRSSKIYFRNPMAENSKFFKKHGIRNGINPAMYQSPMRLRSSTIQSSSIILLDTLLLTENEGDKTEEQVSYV
Protocol: HEK 293 cells stably expressing the human 5-HT2B receptor were incubated overnight in poly-D-lysine-coated 96-well plates at a density of 50,000 cells per well and 37 °C. Thereafter, the growth medium was removed by snap inversion and 200 μL of no wash dye (FLIPR calcium 6 assay kit; Molecular Devices, Sunnyvale, CA, USA) was added to each well. The plates were incubated for 2 h at 37 °C and then placed into a FLIPR. Fifty microliters of the test drugs diluted in assay buffer was added to each well online and the increase in fluorescence was measured for 51 s. EC50 values were derived from the concentration–response curves using nonlinear regression.

human 5-HT2A receptor [2] = molecular target: T1, human 5-HT2A receptor; assay: 5-HT2A receptor binding, [3H]ketanserin displacement; parameters: expressed in transfected cells; host or cells: HEK 293 (transient), membrane preparations
Protocol: as §1

human 5-HT2A receptor [3] = molecular target: T1, human 5-HT2A receptor; assay: Agonist activity at the 5-HT2A receptor, FLIPR calcium flux in NIH-3T3 cells; format: cell-based; parameters: expressed in transfected cells; conditions: for Emax: NIH3T3, calcium flux, relative to 5-HT, read-out: h5-HT2A Emax
Protocol: NIH-3T3 cells stably expressing the human 5-HT2A receptor were incubated in HEPES-Hank’s Balanced Salt Solution (HBSS) buffer (Gibco, Zug, Switzerland; 70,000 cells/100 μL) for 1 h at 37 °C in poly-D-lysine-coated 96-well plates. Thereafter, 100 μL of dye solution (fluorescence imaging plate reader [FLIPR] calcium 5 assay kit dye solution; Molecular Devices, Sunnyvale, CA, USA) was added to each well and the plates were incubated for 1 h at 37 °C. The plates were then placed into a FLIPR and 25 μL of the test drugs diluted in HEPES-HBSS containing 250 mM probenicid was added to each well online. The increase in fluorescence was measured for 51 s, and EC50 values were derived from the concentration–response curves using nonlinear regression.

mice = conditions: ref Gonzalez-Maeso et al. 2007; Halberstadt and Geyer 2013; cited from earlier work
[4] = p.o., ref Shulgin and Shulgin 1991, Trachsel et al. 2013
[5] = read-out: ED50 µmol/kg (95% CI)

Row | Structure (SMILES) | Ki (human 5-HT2A receptor [1]) [nM] | HTR Counts (Mean ± SEM) (male C57BL/6 J mice; 0.3 mg/kg IP) | HTR Counts (Mean ± SEM) (male C57BL/6 J mice; 1 mg/kg IP) | HTR Counts (Mean ± SEM) (male C57BL/6 J mice; 3 mg/kg IP) | HTR Counts (Mean ± SEM) (male C57BL/6 J mice; 10 mg/kg IP) | ED50 (male C57BL/6 J mice; [5]) [µmol/kg] | ED50 (male C57BL/6 J mice; read-out: ED50 mg/kg (95% CI)) [mg/kg] | further results
1 | COc1cc(SCCCF)c(OC)cc1CCN.Cl [Compound 2C-T-28, 4-(3-fluoropropylthio)-2,5-dimethoxyphenethylamine hydrochloride] | 17 | 7.4 ± 2.0 | 25.4 ± 4.1 | 42.0 ± 6.1 | 27.2 ± 7.4 | 3.49 | 1.08 | Human active dose range (humans; [4]): 8 to 20 mg
2 | COc1cc(SCCF)c(OC)cc1CCN.Cl [Compound 2C-T-21, 2,5-dimethoxy-4-(2-fluoroethylthio)phenethylamine hydrochloride] |  | 8.8 ± 2.1 | 19.8 ± 2.7 | 61.8 ± 5.0 | 72.6 ± 9.4 | 5.58 | 1.65 | Human potency range (humans; ref Shulgin and Shulgin (1991)): 8–12 mg ^[5]; Human active dose range (humans; [4]): 8 to 20 mg; Ki (h5-HT2C receptors): 72.7 ± 10.6 nM; EC50 (human 5-HT2B receptor): 102 ± 24 nM; Emax (human 5-HT2B receptor): 32 ± 1.8%; Ki (human 5-HT2A receptor [2]): 27.7 ± 6.2 nM; EC50 (human 5-HT2A receptor [3]): 9.7 ± 0.1 nM; Emax (human 5-HT2A receptor [3]): 69 ± 4.8%
3 | CCN(CC)C(=O)N[C@H]1C=C2c3cccc4[nH]cc(c34)C[C@H]2N(C)C1 [lisuride, reference compound] |  |  |  |  |  |  |  | induction of HTR (in words) (mice): does not induce the response
4 | COc1cc(SCC(F)F)c(OC)cc1CCN.Cl [Compound 2C-T-21.5, 4-(2,2-difluoroethylthio)-2,5-dimethoxyphenethylamine hydrochloride] | 14 |  |  | 39.4 ± 7.2 |  | 9.97 | 3.13 | Human potency range (humans; ref Trachsel et al. (2013)): 12–30 mg ^[6]; Human active dose range (humans; [4]): 12 to 30 mg; HTR Counts (Mean ± SEM) (male C57BL/6 J mice; 1.5 mg/kg IP): 26.0 ± 5.4; HTR Counts (Mean ± SEM) (male C57BL/6 J mice; 6 mg/kg IP): 85.6 ± 9.8; HTR Counts (Mean ± SEM) (male C57BL/6 J mice; 12 mg/kg IP): 40.4 ± 13.0
5 | COc1cc(CC(C)N)cc(OC)c1OC (stereo not shown) [TMA, 3,4,5-trimethoxyamphetamine, reference compound] |  |  |  |  |  |  |  | Human potency range (humans; ref Shulgin and Shulgin (1991)): 100 to 250 mg
6 | COc1cc(SC)c(OC)cc1CC(C)N.Cl (stereo not shown) [ALEPH, 2,5-Dimethoxy-4-methylthioamphetamine hydrochloride] |  | 19.4 ± 1.2 | 72.0 ± 12.1 | 115.0 ± 20.9 | 74.0 ± 13.5 | 2.88 | 0.8 | Human active dose range (humans; ref Shulgin and Nichols 1978, Shulgin and Shulgin 1991): 5 to 15 mg; Ki (h5-HT2C receptors): 355 ± 76 nM; HTR Counts (Mean ± SEM) (male C57BL/6 J mice; 0.1 mg/kg IP): 7.8 ± 1.2; EC50 (human 5-HT2B receptor): 19.2 ± 1.7 nM; Emax (human 5-HT2B receptor): 51 ± 2.6%; Ki (human 5-HT2A receptor [2]): 77.8 nM; EC50 (human 5-HT2A receptor [3]): 10.3 ± 0.6 nM; Emax (human 5-HT2A receptor [3]): 80 ± 2.3%
7 | CCN(CC)C(=O)[C@@H]1C=C2c3cccc4[nH]cc(c34)C[C@H]2N(C)C1 [LSD, lysergic acid diethylamide, reference compound] |  |  |  |  |  |  |  | induction of HTR (in words) (mice): induces the HTR
8 | C=C(C)CSc1cc(OC)c(CCN)cc1OC.Cl [Compound 2C-T-3, 2,5-dimethoxy-4-methallylthiophenethylamine hydrochloride] | 11 | 11.3 ± 3.6 | 26.2 ± 3.4 | 67.6 ± 5.4 | 67.8 ± 7.5 | 6.12 | 1.86 | HTR Counts (Mean ± SEM) (male C57BL/6 J mice; 30 mg/kg IP): 2.2 ± 1.4; reduction of HTR potency versus 2C-T-7 (male C57BL/6 J mice): more than 50%
9 | COc1cc(SC)c(OC)cc1CCN.Cl [Compound 2C-T, 2,5-Dimethoxy-4-methylthiophenethylamine hydrochloride] | 49 |  |  | 49.3 ± 3.1 |  | 13.8 | 3.65 | Human potency range (humans; ref Shulgin and Shulgin (1991)): 60–100 mg ^[5]; Human active dose range (humans; ref Shulgin and Shulgin 1991, Shulgin et al. 1991): 60 to 100 mg; HTR Counts (Mean ± SEM) (male C57BL/6 J mice; 1.5 mg/kg IP): 22.4 ± 5.9; HTR Counts (Mean ± SEM) (male C57BL/6 J mice; 6 mg/kg IP): 61.0 ± 4.7; HTR Counts (Mean ± SEM) (male C57BL/6 J mice; 12 mg/kg IP): 97.2 ± 8.1; HTR Counts (Mean ± SEM) (male C57BL/6 J mice; 24 mg/kg IP): 64.8 ± 6.0; maximum number of head twitches (mean ± SEM) (male C57BL/6 J mice): 97.2 ± 8.1
10 | CCCCSc1cc(OC)c(CCN)cc1OC.Cl [Compound 2C-T-19, 4-n-butylthio-2,5-dimethoxyphenethylamine hydrochloride] | 6.9 | 14.2 ± 3.4 | 19.8 ± 1.1 | 26.6 ± 9.4 | 12.0 ± 4.1 | 3.27 | 1 | maximum number of head twitches (mean ± SEM) (male C57BL/6 J mice): 26.6 ± 9.4
11 | C=CCSc1cc(OC)c(CCN)cc1OC.Cl [Compound 2C-T-16, 4-allylthio-2,5-dimethoxyphenethylamine hydrochloride] | 9.2 |  |  | 101.6 ± 20.4 |  | 5.8 | 1.68 | HTR Counts (Mean ± SEM) (male C57BL/6 J mice; 1.5 mg/kg IP): 49.6 ± 11.1; HTR Counts (Mean ± SEM) (male C57BL/6 J mice; 6 mg/kg IP): 100.6 ± 9.6; HTR Counts (Mean ± SEM) (male C57BL/6 J mice; 12 mg/kg IP): 51.2 ± 18.3; HTR potency relative to 2C-T-7 (male C57BL/6 J mice; mouse, in vivo): about 50%; reduction of HTR potency versus 2C-T-7 (male C57BL/6 J mice): more than 50%
